Test results published in patent US9624182B2, “Compounds as lysophosphatidic acid receptor antagonists” (Amira Pharmaceuticals, Inc., priority 2009, dated 2017).

Target: T1, human LPA1 (Homo sapiens, UniProt Q92633)
T1 construct: the full-length cDNA for human LPA1 was obtained by PCR of the reverse transcription reaction; expressed in transfected cells
Assay: LPA1 calcium flux assay
Type: cell-based
Conditions: CHO cells expressing human LPA1, stimulated with 10 nM LPA; read-out: HLPA1 Ca Flux IC50
Outline: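 CHO cells stably expressing cloned human LPA1, serum-starved overnight, loaded with Calcium 4 dye 1 h at 37 °C in HBSS/20 mM Hepes with 0.3% fatty-acid-free HSA. Compounds preincubated 30 min at room temperature, then cells stimulated with 10 nM LPA; intracellular Ca2+ read by fluorescence. IC50 from titration curves.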

T1 sequence (Q92633 whole entry): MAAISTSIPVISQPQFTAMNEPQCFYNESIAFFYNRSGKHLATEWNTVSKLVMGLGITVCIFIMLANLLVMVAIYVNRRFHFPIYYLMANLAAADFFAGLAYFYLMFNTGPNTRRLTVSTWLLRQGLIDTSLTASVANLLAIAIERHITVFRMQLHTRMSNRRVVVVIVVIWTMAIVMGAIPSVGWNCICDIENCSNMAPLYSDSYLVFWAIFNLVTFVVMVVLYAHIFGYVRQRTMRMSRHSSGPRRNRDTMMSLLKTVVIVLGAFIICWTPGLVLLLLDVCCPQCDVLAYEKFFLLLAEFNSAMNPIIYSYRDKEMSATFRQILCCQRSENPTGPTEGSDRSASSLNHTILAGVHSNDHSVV

IC50 [nM] | SMILES
< 300 | Cc1noc(-c2ccc(-c3ccc(C(C(=O)O)C(C)C)cc3)cc2)c1CSCCc1ccccc1 (centres unmarked) [Compound 1-137, 3-Methyl-2-[4′-(3-methyl-4-phenethylsulfanylmethyl-isoxazol-5-yl)-biphenyl-4-yl]-butyric acid]
1000 to 50000 | CC(=O)N(Cc1ccccc1)CC(O)Cc1c(C)noc1-c1ccc(-c2ccc(C3(C(=O)O)CC3)cc2)cc1 (centres unmarked) [Compound 1-138, 1-(4′-{4-[3-(Acetyl-benzyl-amino)-2-hydroxy-propyl]-3-methyl-isoxazol-5-yl}-biphenyl-4-yl)-cyclopropanecarboxylic acid]
< 300 | Cc1noc(-c2ccc(-c3ccc(C4(C(=O)O)CC4)cc3)cc2)c1/C=C/CN(Cc1ccccc1)S(C)(=O)=O [Compound 1-139, 1-(4′-{4-[3-(Benzyl-methanesulfonyl-amino)-propenyl]-3-methyl-isoxazol-5-yl}-biphenyl-4-yl)-cyclopropanecarboxylic acid]
< 300 | Cc1noc(-c2ccc(-c3ccc(C4(CC(=O)O)CC4)cc3)cc2)c1C(O)CCCc1ccccc1 (centres unmarked) [Compound 1-140, (1-{4′-[4-(1-Hydroxy-4-phenyl-butyl)-3-methyl-isoxazol-5-yl]-biphenyl-4-yl}-cyclopropyl)-acetic acid]
1000 to 50000 | CC(=O)N(CCc1c(C)noc1-c1ccc(-c2ccc(C3(C(=O)O)CC3)cc2)cc1)Cc1ccccc1 [Compound 1-142, 1-(4′-{4-[2-(Acetyl-benzyl-amino)-ethyl]-3-methyl-isoxazol-5-yl}-biphenyl-4-yl)-cyclopropanecarboxylic acid]
1000 to 50000 | Cc1noc(-c2ccc(-c3ccc(C4(C(=O)O)CC4)cc3)cc2)c1CCN(Cc1ccccc1)S(C)(=O)=O [Compound 1-143, 1-(4′-{4-[2-(Benzyl-methanesulfonyl-amino)-ethyl]-3-methyl-isoxazol-5-yl}-biphenyl-4-yl)-cyclopropanecarboxylic acid]
< 300 | Cc1noc(-c2ccc(-c3ccc(C(Cc4ccccc4)C(=O)O)cc3)cc2)c1CSCCc1ccccc1 (centres unmarked) [Compound 1-145, 2-[4′-(3-Methyl-4-phenethylsulfanylmethyl-isoxazol-5-yl)-biphenyl-4-yl]-3-phenyl-propionic acid]
300 to 1000 | CCOC(CCCc1ccccc1)c1c(C)noc1-c1ccc(-c2ccc(C3(C(=O)O)CC3)cc2)cc1 (centres unmarked) [Compound 1-147, 1-{4′-[4-(1-Ethoxy-4-phenyl-butyl)-3-methyl-isoxazol-5-yl]-biphenyl-4-yl}-cyclopropanecarboxylic acid]
< 300 | COC(CCCc1ccccc1)c1c(C)noc1-c1ccc(-c2ccc(C3(C(=O)O)CC3)cc2)cc1 (centres unmarked) [Compound 1-148, 1-{4′-[4-(1-Methoxy-4-phenyl-butyl)-3-methyl-isoxazol-5-yl]-biphenyl-4-yl}-cyclopropanecarboxylic acid]
300 to 1000 | Cc1noc(-c2ccc(-c3ccc(C4(C(=O)O)CC4)cc3)cc2)c1NCCC(C)(C)C [Compound 1-151, 1-{4′-[4-(3,3-Dimethyl-butylamino)-3-methyl-isoxazol-5-yl]-biphenyl-4-yl}-cyclopropanecarboxylic acid]
1000 to 50000 | Cc1noc(-c2ccc(-c3ccc(C4(C(=O)O)CC4)cc3)cc2)c1CO [Compound 1-152, 1-[4′-(4-Hydroxymethyl-3-methyl-isoxazol-5-yl)-biphenyl-4-yl]-cyclopropanecarboxylic acid]
1000 to 50000 | Cc1noc(-c2ccc(-c3ccc(C4(C(=O)O)CC4)cc3)cc2)c1C(=O)CCc1ccccc1 [Compound 1-157, 1-{4′-[3-Methyl-4-(3-phenyl-propionyl)-isoxazol-5-yl]-biphenyl-4-yl}-cyclopropanecarboxylic acid]
< 300 | Cc1noc(-c2ccc(-c3ccc(C4(C(=O)O)CC4)cc3)cc2)c1C(O)/C=C/c1ccccc1 (centres unmarked) [Compound 1-158, 1-{4′-[4-((E)-1-Hydroxy-3-phenyl-allyl)-3-methyl-isoxazol-5-yl]-biphenyl-4-yl}-cyclopropanecarboxylic acid]
1000 to 50000 | Cc1noc(-c2ccc(-c3ccc(C4(C(=O)O)CC4)cc3)cc2)c1C(=O)CCc1cccc(C(F)(F)F)c1 [Compound 1-160, 1-(4′-{3-Methyl-4-[3-(3-trifluoromethyl-phenyl)-propionyl]-isoxazol-5-yl}-biphenyl-4-yl)-cyclopropanecarboxylic acid]
< 300 | Cc1noc(-c2ccc(-c3ccc(C4(C(=O)O)CC4)cc3)cc2)c1C(O)/C=C/c1cccc(C(F)(F)F)c1 (centres unmarked) [Compound 1-161, 1-(4′-{4-[(E)-1-Hydroxy-3-(3-trifluoromethyl-phenyl)-allyl]-3-methyl-isoxazol-5-yl}-biphenyl-4-yl)-cyclopropanecarboxylic acid]
< 300 | Cc1noc(-c2ccc(-c3ccc(CC(=O)O)cc3)cc2)c1NC(C)CCc1cccc(F)c1 (centres unmarked) [Compound 1-165, (4′-{4-[3-(3-Fluoro-phenyl)-1-methyl-propylamino]-3-methyl-isoxazol-5-yl}-biphenyl-4-yl)-acetic acid]

Second part, the molecule before the results:

SMILES | IC50 [nM]
Cc1noc(-c2ccc(-c3ccc(C4(C(=O)O)CC4)cc3)cc2)c1C=CCC(C)c1ccccc1 (centres unmarked) [Compound 1-110, 1-{4′-[3-Methyl-4-(4-phenyl-pent-1-enyl)-isoxazol-5-yl]-biphenyl-4-yl}-cyclopropanecarboxylic acid] | < 300
Cc1noc(-c2ccc(-c3ccc(C4(C(=O)O)CC4)cc3)cc2)c1C=CC(C)Cc1ccc(C(C)C)cc1 (centres unmarked) [Compound 1-111, 1-(4′-{4-[4-(4-Isopropyl-phenyl)-3-methyl-but-1-enyl]-3-methyl-isoxazol-5-yl}-biphenyl-4-yl)-cyclopropanecarboxylic acid] | 1000 to 50000
Cc1noc(-c2ccc(-c3ccc(C4(C(=O)O)CC4)cc3)cc2)c1/C=C\CC(C)c1ccccc1 (centres unmarked) [Compound 1-112, 1-{4′-[3-Methyl-4-((Z)-4-phenyl-pent-1-enyl)-isoxazol-5-yl]-biphenyl-4-yl}-cyclopropanecarboxylic acid] | < 300
Cc1noc(-c2ccc(-c3ccc(C4(C(=O)O)CC4)cc3)cc2)c1/C=C/CC(C)c1ccccc1 (centres unmarked) [Compound 1-113, 1-{4′-[3-Methyl-4-((E)-4-phenyl-pent-1-enyl)-isoxazol-5-yl]-biphenyl-4-yl}-cyclopropanecarboxylic acid] | 1000 to 50000
Cc1noc(-c2ccc(-c3ccc(C4(C(=O)O)CC4)cc3)cc2)c1C(O)C/C=C/c1ccccc1 (centres unmarked) [Compound 1-115, 1-{4′-[4-((E)-1-Hydroxy-4-phenyl-but-3-enyl)-3-methyl-isoxazol-5-yl]-biphenyl-4-yl}-cyclopropanecarboxylic acid] | < 300
Cc1noc(-c2ccc(-c3ccc(C4(C(=O)O)CC4)cc3)cc2)c1CCC(=O)N(C)C(C)(C)c1ccccc1 [Compound 1-118, 1-[4′-(3-Methyl-4-{2-[methyl-(1-methyl-1-phenyl-ethyl)-carbamoyl]-ethyl}-isoxazol-5-yl)-biphenyl-4-yl]-cyclopropanecarboxylic acid] | 1000 to 50000
Cc1noc(-c2ccc(-c3ccc(C4(C(=O)O)CC4)cc3)cc2)c1CCC(=O)N(C)CC1CC1 [Compound 1-119, 1-(4′-{4-[2-(Cyclopropylmethyl-methyl-carbamoyl)-ethyl]-3-methyl-isoxazol-5-yl}-biphenyl-4-yl)-cyclopropanecarboxylic acid] | 300 to 1000
Cc1noc(-c2ccc(-c3ccc(C4(C(=O)O)CC4)cc3)cc2)c1CSCC(=O)c1ccccc1 [Compound 1-120, 1-{4′-[3-Methyl-4-(2-oxo-2-phenyl-ethylsulfanylmethyl)-isoxazol-5-yl]-biphenyl-4-yl}-cyclopropanecarboxylic acid] | 1000 to 50000
CCC(C(=O)O)c1ccc(-c2ccc(-c3onc(C)c3CSCCc3ccccc3)cc2)cc1 (centres unmarked) [Compound 1-122, 2-[4′-(3-Methyl-4-phenethylsulfanylmethyl-isoxazol-5-yl)-biphenyl-4-yl]-butyric acid] | < 300
Cc1noc(-c2ccc(-c3ccc(C(C)C(=O)O)cc3)cc2)c1CSCCc1ccccc1 (centres unmarked) [Compound 1-123, 2-[4′-(3-Methyl-4-phenethylsulfanylmethyl-isoxazol-5-yl)-biphenyl-4-yl]-propionic acid] | < 300
Cc1noc(-c2ccc(-c3ccc(C4(C(=O)O)CC4)cc3)cc2)c1C(=O)CCCc1ccccc1 [Compound 1-124, 1-{4′-[3-Methyl-4-(4-phenyl-butyryl)-isoxazol-5-yl]-biphenyl-4-yl}-cyclopropanecarboxylic acid] | 1000 to 50000
Cc1noc(-c2ccc(-c3ccc(C4(CC(=O)O)CC4)cc3)cc2)c1CSCCc1ccccc1 [Compound 1-125, {1-[4′-(3-Methyl-4-phenethylsulfanylmethyl-isoxazol-5-yl)-biphenyl-4-yl]-cyclopropyl}-acetic acid] | < 300
Cc1noc(-c2ccc(-c3ccc(C4(C(=O)O)CC4)cc3)cc2)c1CCC(=O)N(C)C1CC1 [Compound 1-127, 1-(4′-{4-[2-(Cyclopropyl-methyl-carbamoyl)-ethyl]-3-methyl-isoxazol-5-yl}-biphenyl-4-yl)-cyclopropanecarboxylic acid] | 1000 to 50000
Cc1noc(-c2ccc(-c3ccc(C(C)(C)C(=O)O)cc3)cc2)c1CSCCc1ccccc1 [Compound 1-133, 2-Methyl-2-[4′-(3-methyl-4-phenethylsulfanylmethyl-isoxazol-5-yl)-biphenyl-4-yl]-propionic acid] | < 300
Cc1noc(-c2ccc(-c3ccc(C4(C(=O)O)CC4)cc3)cc2)c1C/C(CCc1ccccc1)=N/O [Compound 1-134, 1-[4′-(4-{2-[Hydroxyimino]-4-phenyl-butyl}-3-methyl-isoxazol-5-yl)-biphenyl-4-yl]-cyclopropanecarboxylic acid] | < 300
Cc1noc(-c2ccc(-c3ccc(C(C)C(=O)O)cc3)cc2)c1CC(F)(F)CCc1ccccc1 (centres unmarked) [Compound 1-136, 2-{4′-[4-(2,2-Difluoro-4-phenyl-butyl)-3-methyl-isoxazol-5-yl]-biphenyl-4-yl}-propionic acid] | < 300
